In PubChem BioAssay AID248 (DTP/NCI, 2004):
Inconclusive results and toxic doses are left out. Rule as the data show it: active = T/C of 150% or more; inactive = T/C below 125%.

Tested on: L1210 leukemia ip in BDF1 mice, survival T/C
Experiment: NCI In Vivo Anticancer Drug Screen. Data for tumor model L1210 Leukemia (intraperitoneal) in B6D2F1 (BDF1) mice
Details: endpoint: mean survival time, higher = longer survival
In short: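 Antitumor effect is assessed in tumor-bearing animals. Survival in the compound arm is compared with a vehicle-dosed control arm and expressed as their quotient.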

[1] = dose: 100.0 mg/kg/injection, schedule: Q04DX002 (ip), vehicle: Klucel (hydroxypropylcellulose) (HPC)
[2] = dose: 200.0 mg/kg/injection, schedule: Q04DX002 (ip), vehicle: Klucel (hydroxypropylcellulose) (HPC)
[3] = dose: 400.0 mg/kg/injection, schedule: Q04DX002 (ip), vehicle: Klucel (hydroxypropylcellulose) (HPC)
[4] = dose: 100.0 mg/kg/injection, schedule: Q04DX003 (ip), vehicle: saline
[5] = dose: 200.0 mg/kg/injection, schedule: Q04DX003 (ip), vehicle: saline
[6] = dose: 50.0 mg/kg/injection, schedule: Q01DX009 (ip), vehicle: saline with Tween-80
[7] = dose: 100.0 mg/kg/injection, schedule: Q04DX003 (ip), vehicle: saline with Tween-80
[8] = dose: 200.0 mg/kg/injection, schedule: Q04DX003 (ip), vehicle: saline with Tween-80
[9] = dose: 100.0 mg/kg/injection, schedule: Q01DX009 (ip), vehicle: Klucel (hydroxypropylcellulose) (HPC)
[10] = dose: 50.0 mg/kg/injection, schedule: Q01DX009 (ip), vehicle: saline
[11] = dose: 100.0 mg/kg/injection, schedule: Q01DX009 (ip), vehicle: saline
[12] = dose: 100.0 mg/kg/injection, schedule: Q01DX009 (ip), vehicle: saline with Tween-80
[13] = dose: 100.0 mg/kg/injection, schedule: Q01DX001 (ip), vehicle: saline

Measured: T/C

COc1ccc(-c2nnc(-c3ccc(OC)cc3)nn2)cc1
inactive: [1] 103 % of control | [2] 87 % of control | [3] 87 % of control

N=C(N)SCc1ccc(Cl)c(Cl)c1
inactive: dose: 50.0 mg/kg/injection, schedule: Q01DX003 (ip), vehicle: Klucel (hydroxypropylcellulose) (HPC) 106 % of control | dose: 100.0 mg/kg/injection, schedule: Q01DX003 (ip), vehicle: Klucel (hydroxypropylcellulose) (HPC) 101 % of control | [4] 102 % of control | [5] 89 % of control

CN1CCC2CCC(C1)N2C (stereo not drawn)
inactive: dose: 75.0 mg/kg/injection, schedule: Q01DX001 (ip), vehicle: saline 93 % of control | dose: 150.0 mg/kg/injection, schedule: Q01DX001 (ip), vehicle: saline 100 % of control

O=[N+]([O-])/C=C/c1ccc2ccccc2n1
inactive: dose: 6.25 mg/kg/injection, schedule: Q01DX009 (ip), vehicle: saline with Tween-80 97 % of control | dose: 12.5 mg/kg/injection, schedule: Q01DX009 (ip), vehicle: saline with Tween-80 97 % of control | [6] 87 % of control | [7] 93 % of control | [8] 95 % of control

COC(=O)c1cc(NC(=O)Nc2cccc(C(C)=O)c2)cc(C(=O)OC)c1
inactive: [9] 98 % of control | dose: 200.0 mg/kg/injection, schedule: Q01DX009 (ip), vehicle: Klucel (hydroxypropylcellulose) (HPC) 102 % of control | dose: 400.0 mg/kg/injection, schedule: Q01DX009 (ip), vehicle: Klucel (hydroxypropylcellulose) (HPC) 93 % of control

COC(=O)C(N)CCCCNC(c1ccccc1)(c1ccccc1)c1ccccc1 (stereo not drawn)
inactive: [10] 107 % of control | [11] 86 % of control

Cc1ccc(NC(=O)OCC(F)(F)C(F)(F)C(F)(F)F)c(NC(=O)OCC(F)(F)C(F)(F)C(F)(F)F)c1
inactive: dose: 100.0 mg/kg/injection, schedule: Q04DX002 (ip), vehicle: saline with Tween-80 98 % of control | dose: 200.0 mg/kg/injection, schedule: Q04DX002 (ip), vehicle: saline with Tween-80 98 % of control | dose: 400.0 mg/kg/injection, schedule: Q04DX002 (ip), vehicle: saline with Tween-80 112 % of control

CC(C)CCCC(C)C1CCC2C3CCC4CC(O)CCC4(C)C3CCC12C (stereo not drawn)
inactive: dose: 100.0 mg/kg/injection, schedule: Q01DX001 (sc), vehicle: steriod suspending solution 109 % of control | dose: 200.0 mg/kg/injection, schedule: Q01DX001 (sc), vehicle: steriod suspending solution 109 % of control | dose: 400.0 mg/kg/injection, schedule: Q01DX001 (sc), vehicle: steriod suspending solution 100 % of control

Cc1c2ccccc2c(C)c2c1cc(CO)c1ccccc12
inactive: [1] 97 % of control | [2] 104 % of control | [3] 89 % of control

CCOc1ccc(CCC(=O)O)cc1
inactive: dose: 100.0 mg/kg/injection, schedule: Q04DX003 (ip), vehicle: Klucel (hydroxypropylcellulose) (HPC) 100 % of control | dose: 200.0 mg/kg/injection, schedule: Q04DX003 (ip), vehicle: Klucel (hydroxypropylcellulose) (HPC) 105 % of control | dose: 400.0 mg/kg/injection, schedule: Q04DX003 (ip), vehicle: Klucel (hydroxypropylcellulose) (HPC) 94 % of control

Cc1ccc(CC#N)c(-c2c(CC#N)ccc(C)c2C)c1C
inactive: dose: 100.0 mg/kg/injection, schedule: Q04DX002 (ip), vehicle: gum acacia 87 % of control | dose: 200.0 mg/kg/injection, schedule: Q04DX002 (ip), vehicle: gum acacia 93 % of control | dose: 400.0 mg/kg/injection, schedule: Q04DX002 (ip), vehicle: gum acacia 93 % of control

Nc1nc(N)c(-c2ccc(Cl)c(Cl)c2)c(COc2ccc(NC(=O)Nc3ccc(S(=O)(=O)F)c(Cl)c3)c(Cl)c2)n1
inactive: dose: 75.0 mg/kg/injection, schedule: Q01DX001 (ip), vehicle: saline with Tween-80 90 % of control | dose: 150.0 mg/kg/injection, schedule: Q01DX001 (ip), vehicle: saline with Tween-80 98 % of control

CN1COC(OC(C)(C)C)C(C)(C)C1 (stereo not drawn)
inactive: dose: 100.0 mg/kg/injection, schedule: Q01DX001 (ip), vehicle: saline sonified 90 % of control | dose: 400.0 mg/kg/injection, schedule: Q01DX001 (ip), vehicle: saline sonified 95 % of control

Cn1c2c(c(=O)n(C)c1=O)CC(=O)N2
inactive: dose: 50.0 mg/kg/injection, schedule: Q01DX009 (ip), vehicle: Klucel (hydroxypropylcellulose) (HPC) 100 % of control | [9] 103 % of control

C(=C(c1ccccc1)c1ccccc1)c1ccccn1
inactive: [12] 97 % of control | [7] 98 % of control | dose: 200.0 mg/kg/injection, schedule: Q01DX009 (ip), vehicle: saline with Tween-80 100 % of control | [8] 93 % of control | dose: 400.0 mg/kg/injection, schedule: Q01DX009 (ip), vehicle: saline with Tween-80 97 % of control

CCN(CC)CCC(=O)Nc1cccc2c1C(=O)c1c(c(O)c3ccccc3c1O)C2=O
inactive: [6] 105 % of control | [12] 91 % of control | [7] 105 % of control | [8] 90 % of control

CC(=O)Nc1ccc(Cl)cc1C(=O)c1ccc[nH]1
inactive: [10] 110 % of control | [11] 104 % of control | [4] 106 % of control | dose: 200.0 mg/kg/injection, schedule: Q01DX009 (ip), vehicle: saline 103 % of control | [5] 108 % of control | dose: 400.0 mg/kg/injection, schedule: Q01DX009 (ip), vehicle: saline 98 % of control | dose: 400.0 mg/kg/injection, schedule: Q04DX003 (ip), vehicle: saline 93 % of control

S=C(NNc1ccccc1)NC1CCCCC1
inactive: dose: 150.0 mg/kg/injection, schedule: Q01DX009 (ip), vehicle: saline with Tween-80 95 % of control | dose: 225.0 mg/kg/injection, schedule: Q01DX009 (ip), vehicle: saline with Tween-80 97 % of control | dose: 335.0 mg/kg/injection, schedule: Q01DX009 (ip), vehicle: saline with Tween-80 92 % of control

CN(C)C(C#N)C(=O)c1ccc(Cl)cc1 (stereo not drawn)
inactive: [13] 91 % of control | dose: 200.0 mg/kg/injection, schedule: Q01DX001 (ip), vehicle: saline 95 % of control

CC[n+]1ccccc1CCC(=O)Nc1ccccc1
inactive: dose: 25.0 mg/kg/injection, schedule: Q04DX003 (ip), vehicle: saline 97 % of control | dose: 50.0 mg/kg/injection, schedule: Q04DX003 (ip), vehicle: saline 92 % of control | [4] 95 % of control

COc1ccc(OC)c(C(O)C(C)NC(C)(C)C)c1 (stereo not drawn)
inactive: dose: 50.0 mg/kg/injection, schedule: Q01DX001 (ip), vehicle: saline 106 % of control | [13] 97 % of control

CN(C)CC1(C)CCc2c(ccc3ccccc23)C1O (stereo not drawn)
inactive: dose: 100.0 mg/kg/injection, schedule: Q01DX001 (ip), vehicle: Klucel (hydroxypropylcellulose) (HPC) 94 % of control

c1ccc2sc(SSN3CCSCC3)nc2c1
inactive: dose: 75.0 mg/kg/injection, schedule: Q04DX003 (ip), vehicle: Klucel (hydroxypropylcellulose) (HPC) 102 % of control | dose: 100.0 mg/kg/injection, schedule: Q01DX001 (ip), vehicle: other 98 % of control | dose: 150.0 mg/kg/injection, schedule: Q04DX003 (ip), vehicle: Klucel (hydroxypropylcellulose) (HPC) 100 % of control | dose: 200.0 mg/kg/injection, schedule: Q01DX001 (ip), vehicle: other 92 % of control | dose: 300.0 mg/kg/injection, schedule: Q04DX003 (ip), vehicle: Klucel (hydroxypropylcellulose) (HPC) 89 % of control | dose: 400.0 mg/kg/injection, schedule: Q01DX001 (ip), vehicle: other 97 % of control
